18 compounds from patent publication US10329324B2 (viDA Therapeutics Inc., priority 2013, dated 2019) can be followed below.

pIC50: −log10 of the molar value. Where a name gives a salt, the structure may show the parent alone. A value given as a limit tells only on which side of the number the result lay.

For the first test, the target named is T1, human Granzyme B (hGzmB) (Homo sapiens, UniProt P10144).
T1 construct: purchased Froelich Lab, Northshore University Health Systems Research Institute, Evanston, Ill., USA
T1 sequence (P10144 21-247): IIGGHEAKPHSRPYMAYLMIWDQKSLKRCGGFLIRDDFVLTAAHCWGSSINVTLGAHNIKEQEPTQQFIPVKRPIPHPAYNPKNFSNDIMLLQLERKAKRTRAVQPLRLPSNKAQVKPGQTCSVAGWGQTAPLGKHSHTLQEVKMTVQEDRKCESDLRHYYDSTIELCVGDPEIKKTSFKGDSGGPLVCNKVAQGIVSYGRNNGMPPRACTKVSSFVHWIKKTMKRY
The test is described as follows: Human Granzyme B enzymatic inhibition assay (fluorogenic, kinetic). Type of test: biochemical.
Settings: not given
The procedure: A specific 2× assay buffer was prepared for the enzyme to be tested (see Table 2 for final 1× assay buffer compositions). If the assay buffer included DTT, it was added immediately prior to running the assay. A 2× enzyme mix was prepared (see Table 3 for enzyme assay conditions) at 80 uL per well. Compounds were screened at one or two appropriate concentrations (to determine the percent inhibition at those concentrations) and/or a full dose response curve (typically 8 points, to identify the IC50) in duplicate, triplicate, or higher replicates as needed. An appropriate control was also assessed in full dose response, in duplicate for each assay/plate. Background control wells consisted of 1× assay buffer, DMSO (5% v/v) and substrate. Positive control wells consisted of enzyme, DMSO (5% v/v) and substrate. Test compounds and control compounds were diluted in DMSO to […] the final desired concentration. For example, a test compound may be tested in dose response, in serial, tripling dilution condition starting at 20 uM and ending at 9.1 nM (or any appropriate concentration range and dilution scheme). Control compounds were prepared similarly. Diluted compounds were prepared in a dilution plate and transferred to the reaction plate (96-well medium binding plate (Greiner Bio-One FLUOTRAC™)) to allow for the desired final concentrations when added to the enzyme with AB. After mixing, the reaction plate was placed on a shaker (at 300 RPM) for 5 min, followed by incubation (covered) on the bench, for 20 min. Plates were warmed to reaction temperature (see Table 3) for a total incubation time of 30 min. Plates so prepared were ready for addition of substrate and the subsequent reaction.
(§1) An appropriate substrate for each assay was prepared in advance at 2× the final desired concentration (see Table 2) in DMSO. The appropriate substrate mix was added to each appropriate well on the reaction plate, and the plate was read immediately in the TECAN plate reader (TECAN INFINITE® M1000 Pro), set to the correct wavelength as needed for each assay (see Table 3) using 25 cycles, kinetic interval of 1 min, number of reads per well of 20 with shaking set to 1 s, double orbital, 2 mm amplitude. For fluorescent assays the gain was set to optimal (50%).
An in vitro fluorogenic detection assay for assessing the IC50 and/or percent inhibition at a given concentration of inhibitors against human Granzyme B (hGzmB) enzyme was performed as described in Example D1. When appropriate, percent inhibition data was collected and fitted to generate IC50 data using GraphPad Prism 5 (GraphPad Software, La Jolla Calif. USA, www.graphpad.com) and its non-linear regression analysis tools or other equivalent tools. […]
as §1, with “5)” for “2)”, “assay buffer. 30 uL of the” for “DMSO. The”, “6)” for “3)”, “15” for “25”, “(100% with gain regulation) for all assays except human GzmB which was set to 85 (with the z set at 23000 um).” for “(50%).”
An in vitro fluorogenic detection assay for assessing the IC50 and/or percent inhibition at a given concentration of inhibitors against human Granzyme B (hGzmB) enzyme was performed as described in Example D5. When appropriate, percent inhibition data was collected and fitted to generate IC50 data using GraphPad Prism 5 (GraphPad Software, La Jolla Calif. USA, www.graphpad.com) and its non-linear regression analysis tools or other equivalent tools.
On to `CC[C@H](C)[C@H](NC(=O)[C@@H](N)CC(=O)O)C(=O)NCC(=O)N1c2ccccc2C[C@H]1C(=O)NCc1nn[nH]n1` [Example A37, (3S)-3-Amino-3-{[(1S,2S)-2-Methyl-1-({2-Oxo-2-[(2S)-2-[(2H-1,2,3,4-Tetrazol-5-Ylmethyl)Carbamoyl]-2,3-Dihydro-1H-Indol-1-Yl]Ethyl}Carbamoyl)Butyl]Carbamoyl}Propanoic Acid], for which the pIC50 was 6.00 to 7.00.

Staying with this test, now noted: activity codes, Table 7; read-out: IC50 Activity Range.
Take `CC[C@H](C)[C@H](NC(=O)C1C[C@@H]1C(=O)O)C(=O)NCC(=O)N1c2ccccc2C[C@H]1C(=O)NCc1nn[nH]n1` (stereo partly drawn) [Example A48, (1S,2S)-2-{[(1S,2S)-2-Methy-1-({2-Oxo-2-[(2S)-2-[(2H-1,2,3,4-Tetrazol-5-Ylmethyl)Carbamoyl]-2,3-Dihydro-1H-Indol-1-Yl]Ethyl}Carbamoyl)Butyl]Carbamoyl}Cyclopropane-1-Carboxylic Acid]: the pIC50 was 5.00 to 6.00.

Take `C[C@@H](O)[C@H](NC(=O)Cc1ccccc1)C(=O)NCC(=O)N1c2ccccc2C[C@H]1C(=O)NCc1nn[nH]n1` [Example C2, (2S)-1-{2-[(2S,3R)-3-Hydroxy-2-(2-Phenylacetamido)Butanamido]Acetyl}-N-(2H-1,2,3,4-Tetrazol-5-Ylmethyl)-2,3-Dihydro-1H-Indole-2-Carboxamide]: the pIC50 is < 5.00.

With `CC[C@H](C)[C@H](NC(=O)CCC(=O)OCCOC(=O)C(C)(C)C)C(=O)NCC(=O)N1c2ccccc2C[C@H]1C(=O)NCc1nn[nH]n1` [Example A47, 2-[(2,2-Dimethylpropanoyl)Oxy]Ethyl 3-{[(1S,2S)-2-Methyl-1-({2-Oxo-2-[(2S)-2-[(2H-1,2,3,4-Tetrazol-5-Ylmethyl)Carbamoyl]-2,3-Dihydro-1H-Indol-1-Yl]Ethyl}Carbamoyl)Butyl]Carbamoyl}Propanoate], the pIC50 was 6.00 to 7.00.

On to `CC[C@H](C)[C@H](NC(=O)C[C@@H](N)C(=O)O)C(=O)NCC(=O)N1c2ccccc2C[C@H]1C(=O)NCc1nn[nH]n1` [Example A40, (2R)-2-Amino-3-{[(1S,2S)-2-Methyl-1-({2-Oxo-2-[(2S)-2-[(2H-1,2,3,4-Tetrazol-5-Ylmethyl)Carbamoyl]-2,3-Dihydro-1H-Indol-1-Yl]Ethyl}Carbamoyl)Butyl]Carbamoyl}Propanoic Acid], for which the pIC50 was 6.00 to 7.00.

For `CC[C@H](C)[C@H](NC(=O)Cc1nn[nH]n1)C(=O)NCC(=O)N1c2ccccc2C[C@H]1C(=O)NCc1c[nH]nn1` [Example C39, (2S)-1-{2-[(2S,3S)-3-Methyl-2-[2-(2H-1,2,3,4-Tetrazol-5-Yl)Acetamido]Pentanamido]Acetyl}-N-(1H-1,2,3-Triazol-4-Ylmethyl)-2,3-Dihydro-1H-Indole-2-Carboxamide], the pIC50 is > 7.00.

Take `CC[C@H](C)[C@H](NC(=O)CCCCC(=O)O)C(=O)NCC(=O)N1c2ccccc2C[C@H]1C(=O)NCc1nn[nH]n1` [Example A5, 5-{[(1S,2S)-2-Methyl-1-({2-Oxo-2-[(2S)-2-[(2H-1,2,3,4-Tetrazol-5-Ylmethyl)Carbamoyl]-2,3-Dihydro-1H-Indol-1-Yl]Ethyl}Carbamoyl)Butyl]Carbamoyl}Pentanoic Acid]: the pIC50 was > 7.00.

In the case of `CC[C@H](C)[C@H](NC(=O)/C=C/C(=O)O)C(=O)NCC(=O)N1c2ccccc2C[C@H]1C(=O)NCc1nn[nH]n1` [Example A36, (2E)-3-{[(1S,2S)-2-Methyl-1-({2-Oxo-2-[(2S)-2-[(2H-1,2,3,4-Tetrazol-5-Ylmethyl)Carbamoyl]-2,3-Dihydro-1H-Indol-1-Yl]Ethyl}Carbamoyl)Butyl]Carbamoyl}Prop-2-Enoic Acid], the negative logarithm of the IC50 (pIC50) was > 7.00.

For the compound `CC[C@H](C)[C@H](NC(=O)CC(C)CC(=O)O)C(=O)NCC(=O)N1c2ccccc2C[C@H]1C(=O)NCc1nn[nH]n1` (stereo partly drawn) [Example A17, 3-Methyl-4-{[(1S,2S)-2-Methyl-1-({2-Oxo-2-[(2S)-2-[(2H-1,2,3,4-Tetrazol-5-Ylmethyl)Carbamoyl]-2,3-Dihydro-1H-Indol-1-Yl]Ethyl}Carbamoyl)Butyl]Carbamoyl}Butanoic Acid], the pIC50 was > 7.00.

With `CC[C@H](C)[C@H](NC(=O)Cc1ccccc1)C(=O)N[C@@H](CC(=O)O)C(=O)N1c2ccccc2C[C@H]1C(=O)NCc1nn[nH]n1` [Example C14], the pIC50 is 5.00 to 6.00.

On to `CC[C@H](C)[C@H](NC(=O)CCC(C(=O)O)c1ccccc1)C(=O)NCC(=O)N1c2ccccc2C[C@H]1C(=O)NCc1nn[nH]n1` (stereo partly drawn) [Example A51, 4-{[(1S,2S)-2-Methyl-1-({2-Oxo-2-[(2S)-2-[(2H-1,2,3,4-Tetrazol-5-Ylmethyl)Carbamoyl]-2,3-Dihydro-1H-Indol-1-Yl]Ethyl}Carbamoyl)Butyl]Carbamoyl}-2-Phenylbutanoic Acid], for which the pIC50 was > 7.00.

As for `O=C(O)CCC(=O)NC1(C(=O)NCC(=O)N2c3ccccc3C[C@H]2C(=O)NCc2nn[nH]n2)CCCC1` [Example C29, 3-{[1-({2-Oxo-2-[(2S)-2-[(2H-1,2,3,4-Tetrazol-5-Ylmethyl)Carbamoyl]-2,3-Dihydro-1H-Indol-1-Yl]Ethyl}Carbamoyl)Cyclopentyl]Carbamoyl}Propanoic Acid], the pIC50 was < 5.00.

For `CC[C@H](C)[C@H](NC(=O)[C@H](C)CC(=O)OC)C(=O)NCC(=O)N1c2ccccc2C[C@H]1C(=O)NCc1nn[nH]n1` [Example A29, Methyl (3R)-3-Methyl-3-{[(1S,2S)-2-Methyl-1-({2-Oxo-2-[(2S)-2-[(2H-1,2,3,4-Tetrazol-5-Ylmethyl)Carbamoyl]-2,3-Dihydro-1H-Indol-1-Yl]Ethyl}Carbamoyl)Butyl]Carbamoyl}Propanoate], the pIC50 is 6.00 to 7.00.

Regarding `C[C@H](OC(C)(C)C)[C@H](NC(=O)Cc1ccccc1)C(=O)NCC(=O)N1c2ccccc2C[C@H]1C(=O)NCc1nn[nH]n1` [Example C10, (2S)-1-{2-[(2S,3S)-3-(Tert-Butoxy)-2-(2-Phenylacetamido)Butanamido]Acetyl}-N-(2H-1,2,3,4-Tetrazol-5-Ylmethyl)-2,3-Dihydro-1H-Indole-2-Carboxamide], the pIC50 was < 5.00.

Take `CC[C@H](C)[C@H](NC(=O)Cc1cccc(CC(=O)O)c1)C(=O)NCC(=O)N1c2ccccc2C[C@H]1C(=O)NCc1nn[nH]n1` [Example A35, 2-[3-({[(1S,2S)-2-Methyl-1-({2-Oxo-2-[(2S)-2-[(2H-1,2,3,4-Tetrazol-5-Ylmethyl)Carbamoyl]-2,3-Dihydro-1H-Indol-1-Yl]Ethyl}Carbamoyl)Butyl]Carbamoyl}Methyl)Phenyl]Acetic Acid]: the pIC50 is > 7.00.

Consider `CC[C@H](C)[C@H](NC(=O)OC(C)(C)C)C(=O)NCC(=O)N1c2ccccc2C[C@H]1C(=O)NCc1nn[nH]n1` [Example I-5, tert-Butyl N-[(1S,2S)-2-methyl-1-({2-oxo-2-[(2S)-2-[(2H-1,2,3,4-tetrazol-5-ylmethyl)carbamoyl]-2,3-dihydro-1H-indol-1-yl]ethyl}carbamoyl)butyl]carbamate], for which the pIC50 is 5.00 to 6.00.

For the compound `CC[C@H](C)[C@H](NC(=O)Cc1cccc(N)c1)C(=O)NCC(=O)N1c2ccccc2C[C@H]1C(=O)NCc1nn[nH]n1` [Example A9, (2S)-1-{2-[(2S,3S)-2-[2-(3-Aminophenyl)Acetamido]-3-Methylpentanamido]Acetyl}-N-(2H-1,2,3,4-Tetrazol-5-Ylmethyl)-2,3-Dihydro-1H-Indole-2-Carboxamide Hydrochloride], the pIC50 was 6.00 to 7.00.

In the case of `CC[C@H](C)[C@H](NC(=O)Cc1ccccc1)C(=O)N[C@@H](CCCC(=O)O)C(=O)N1c2ccccc2C[C@H]1C(=O)NCc1nn[nH]n1` [Example C17, (5S)-5-[(2S,3S)-3-Methyl-2-(2-Phenylacetamido)Pentanamido]-6-Oxo-6-[(2S)-2-[(2H-1,2,3,4-Tetrazol-5-Ylmethyl)Carbamoyl]-2,3-Dihydro-1H-Indol-1-Yl]Hexanoic Acid], the pIC50 was 5.00 to 6.00.

What is called pIC50 is −log10 of the IC50, conventionally taken in molar units.
